According to article PMC9530963, “A cathelicidin antimicrobial peptide from Hydrophis cyanocinctus inhibits Zika virus infection by downregulating expression of a viral entry factor” (The Journal of Biological Chemistry, 2022):

How the values were obtained:
[1] = test system: TYRO3; assay: TYRO3 level in Vero cells (Western blot); type: cell-based, Chlorocebus aethiops; conditions: 6, 12, and 24 h post Hc-CATH addition
Description: Figure 3 Hc-CATH downregulates AXL in Vero cell.A, schematic diagram of B and C. B, Vero cells were seeded in 24-well plates (5 × 10^4 cells/well) and cultured in DMEM containing 2% FBS. Hc-CATH (1.25, 2.5, and 5 μM), AC5 (2.5 μM), LL-37 (2.5 μM), or same volume of PBS (peptide solvent) was added to cells. After culture at 37 °C for 6, 12, and 24 h, the levels of ZIKV entry factors, including AXL, TYRO3, and TIM-1, were tested by Western blot, respectively. C, Vero cells were seeded in 8-well cover slip chambers (5 × 10^4 cells/well) and cultured in DMEM containing 2% FBS. Hc-CATH (1.25, 2.5, and 5 μM), AC5 (2.5 μM), LL-37 (2.5 μM), or same volume of PBS (peptide solvent) was added to cells. After culture at 37 °C for 24 h, the level of AXL was tested by immunofluorescence staining. The scale bar represents 50 μm. D, schematic diagram of E. E, Vero cells were seeded in 24-well plates (5 × 10^4 cells/well) and cultured in DMEM containing 2% FBS. Hc-CATH (1.25, 2.5, and 5 μM), AC5 (2.5 μM), LL-37 (2.5 μM), or same volume of PBS (peptide solvent) was added to cells and incubated at 37 °C for 2 h. […] Ratio of AXL to β-actin was analyzed by ImageJ.
Vero cells were incubated with Hc-CATH (1.25, 2.5, and 5 μM), AC5 (2.5 μM), LL-37 (2.5 μM), or PBS (solvent of peptide). […] The levels of ZIKV entry factors, including AXL, TYRO3, and TIM-1, were detected by WB analysis. […]

[2] = set-up: method as in PMID 26013823; conditions: cited from earlier work
[3] = test system: ZIKV; assay: Susceptibility of Vero cells to ZIKV (peptide pretreatment of cells); type: cell-based, ZIKV strain PRVABC59; conditions: 2.5 μM, Vero cells incubated 2 h with peptide before ZIKV (MOI = 1), 48 h
Description: Figure 2 Hc-CATH decreases the susceptibility of Vero cells to ZIKV.A, schematic diagram of B–G (Hc-CATH-Vero-pre). B–G, pretreatment with Hc-CATH before ZIKV infection decreases the susceptibility of Vero cells to ZIKV. Vero cells were seeded in 24-well plates (5 × 10^4 cells/well) and cultured in DMEM containing 2% FBS. Hc-CATH (2.5 μM), AC5 (2.5 μM), LL-37 (2.5 μM), or same volume of PBS (peptide solvent) was added to cells and incubated at 37 °C for 2 h. Vero cells were washed three times with PBS, and ZIKV (MOI = 1) was added to cells. After incubation at 37 °C for 2 h, Vero cells were washed with PBS and transferred with fresh DMEM containing 2% FBS. After culture for 48 h, intracellular ZIKV RNA (B), NS3 protein (C and D, C: immunoblots, D: ratio analyzed by ImageJ), E protein (E, the scale bar represents 50 μm), and extracellular ZIKV titer (F and G) was tested by qPCR, Western blot, immunofluorescence staining, and plaque-forming assay, respectively.
Vero, A549, or U251 cells were incubated with peptide or PBS at 37 °C for 2 h. The cells were washed three times with PBS and incubated with ZIKV (MOI = 1) at 37 °C for 2 h. The culture media were replaced with fresh DMEM containing 2% FBS. After incubation at 37 °C for 48 h, intracellular ZIKV RNA, NS3 protein, E protein, and extracellular ZIKV titer were detected by qPCR, WB, IF, and plaque-forming assay, respectively ([28]).

[4] = test system: ZIKV; assay: Leakage of ZIKV genomic RNA (micrococcal nuclease digestion); set-up: species or system ZIKV strain PRVABC59; conditions: 1, 20, and 40 μM, 37 °C 2 h; micrococcal nuclease 37 °C 4 h; qPCR of PrM, E, Cap
Description: Figure 8 Hc-CATH directly inactivates ZIKV particles by disrupting viral membrane.A, schematic diagram of B–G (Hc-CATH-Vero-pre). B–G, direct inactivation of ZIKV by Hc-CATH. ZIKVs (MOI = 1) were incubated with Hc-CATH (2.5 μM), AC5 (2.5 μM), LL-37 (2.5 μM), or PBS (peptide solvent) at 37 °C for 2 h, and then the ZIKV–PBS mixture and ZIKV–peptide mixture were centrifugated at 100,000g for 70 min. The pellets were washed with PBS and centrifugated at 100,000g for 70 min again. The pellets were resuspended in PBS, added to Vero cells, and incubated for 2 h. Cells were washed with PBS and cultured in fresh DMEM containing 2% FBS. […] Absorbance at 450 nm was measured after reactions were stopped using 0.5 M sulfuric acid. […] After the residual RNase was inactivated, the undigested genomic RNA in the intact ZIKV particles was extracted and quantified by testing the genes of PrM, E, and Cap proteins, respectively. ∗∗p < 0.01 and ∗∗∗p < 0.001.
For assay of the disruption of viral membrane by Hc-CATH, ZIKV (about 10^5 PFU) was incubated with Hc-CATH (1, 20, and 40 μM), PBS, or 1% Triton X-100 (positive control) at 37 °C for 2 h. […] The residual RNase was inactivated, the undigested genomic RNA in the intact ZIKV particles was extracted and quantified by testing viral genes encoding membrane protein (PrM), E protein, and capsid (Cap) protein, respectively ([43]).

KFFKRLLKSVRRAVKKFRKKPRLIGLSTLL [Hc-CATH, cathelicidin antimicrobial peptide identified from the sea snake Hydrophis cyanocinctus]
level of TYRO3 in Vero cells [1]: did not obviously influence
anti-inflammatory activity [2]: potent anti-inflammatory activity
reduction of ZIKV NS3 protein, cells pre-incubated with peptide ([3]; Western blot): ~50.1%
reduction of ZIKV particles, cells pre-incubated with peptide ([3]; plaque-forming assay): ~62.2%
reduction of ZIKV RNA, cells pre-incubated with peptide ([3]; qPCR): about 46.1%
genomic RNA of peptide-treated virions (leakage) [4]: digested by micrococcal nuclease
